Drawing on paper PMC6988263 (Parasites & Vectors, 2020), this text covers Km for one compound.

In the assay the target is T1, rHc-HRG-2 (recombinant Hc-HRG-2) (Haemonchus contortus, UniProt A0A7I5E8W1).
T1 construct: vector His tag), expressed in E. coli, Ni-NTA purified
Put plainly: GSH-CDNB conjugation, absorbance at […] nm. In kind it is biochemical. The following applies: 1 mM GSH, 0.1 M potassium phosphate pH 6.5, 10 μM protein.

T1 sequence (A0A7I5E8W1 entry or part of it): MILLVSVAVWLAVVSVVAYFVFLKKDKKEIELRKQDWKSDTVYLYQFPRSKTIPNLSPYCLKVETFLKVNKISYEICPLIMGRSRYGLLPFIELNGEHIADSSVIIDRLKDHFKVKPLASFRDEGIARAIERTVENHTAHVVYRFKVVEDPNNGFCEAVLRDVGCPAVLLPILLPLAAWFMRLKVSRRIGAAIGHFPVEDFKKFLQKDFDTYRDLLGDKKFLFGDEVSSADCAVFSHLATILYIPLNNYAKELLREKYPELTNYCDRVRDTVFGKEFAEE

Consider `O=[N+]([O-])c1ccc(Cl)c([N+](=O)[O-])c1` [CDNB, 1-chloro-2,4-dinitrobenzene], for which the Km turned out to be 508 ± 34.1 µM.

In general, Km refers to the concentration of substrate that gives half-maximal velocity.
